Work on CCCCOc1ccc(Cl)cc1C(=O)N[C@H]1C[C@@H]1c1ccc(-c2ccc(C(=O)O)cc2)cc1 [Compound 108, 4′-{(1R,2S)-2-[(2-butoxy-5-chlorobenzoyl)amino]cyclopropyl}-biphenyl-4-carboxylic acid] yielded a melting point of 218 to 222 °C.
